In US6593374B2, “Tubulin binding ligands and corresponding prodrug constructs” (Baylor University, priority 2000, dated 2003):
≈ marks a conversion by molar mass, not a printed value. Like-named read-outs stand apart in the source and are kept apart here. Blank lines part the entries; values can stand above or below the compound they belong to.

Assays:
KM20L2 = test: Growth inhibition, human cancer cell line KM20L2 (SRB); type: cell-based; details: 48 hours
Experimental: (§1) Several of the compounds described in this application were evaluated in terms of growth inhibitory activity against several human cancer cell lines, including pancreas, breast, CNS, lung-NSC, colon, and prostate lines. The assay used is described in Monks et al.^32 Briefly, the cell suspensions, diluted according to the particular cell type and the expected target cell density (5,000-40,000 cells per well based on cell growth characteristics), were added by pipet (100 μl) to 96-well microtiter plates. Inoculates were allowed a preincubation time of 24-28 hours at 37° C. for stabilization. Incubation with the inhibitor compounds lasted for 48 hours in 5% CO2 atmosphere and 100% humidity. Determination of cell growth was done by in situ fixation of cells, followed by staining with a protein-binding dye, sulforhodamine B (SRB), which binds to the basic amino acids of cellular macromolecules. The solubilized stain was measured spectrophotometrically.

BXPC-3 = test: Growth inhibition, human cancer cell line BXPC-3 (SRB); type: cell-based; details: Pancreas-a, 48 hours
Experimental: as §1

MCF-7 = test: Growth inhibition, human cancer cell line MCF-7 (SRB); type: cell-based; details: 48 hours
Experimental: as §1

SF-295 = test: Growth inhibition, human cancer cell line SF-295 (SRB); type: cell-based; details: CNS, 48 hours
Experimental: as §1

NCI-H460 = test: Growth inhibition, human cancer cell line NCI-H460 (SRB); type: cell-based; details: Lung-NSC, 48 hours
Experimental: as §1

MHEC = test: In vivo tumor growth control in scid mice after MHEC inoculation; details: female scid mice, single dose ip 400 mg/kg, one week after MHEC inoculation (1×10^6/mouse)
Experimental: Female scid mice were single dose ip administered with CA-4P, and benzo[b]thiophene phosphate prodrug at 400 mg/kg (i.e., MDT of CA-4P) after one week of MHEC inoculation (1×10^6/mouse) (FIG. 20). Studies were carried out through a collaboration with professors Ronald W. Pero and Klaus Edvardsen, University of Lund, Sweden

purified tubulin [1] = tested on: T1, purified tubulin; test: Inhibition of tubulin polymerization assay; type: biochemical, bovine; details: for IC50: read-out: IC50, in vitro inhibition of tubulin polymerization, purified bovine brain tubulin 1.5 mg/ml, 15 min preincubation at 37° C., GTP-induced, 350 nm
T1 construct: other: purified bovine brain tubulin 1.5 mg/ml, 15 min preincubati
Experimental: After the incubation period, the reaction was cooled and GTP was added to induce tubulin polymerization. Polymerization was then monitored in a Gilford spectrophotometer at 350 nm. The final reaction mixtures (0.25 ml) contained 1.5 mg/ml tubulin, 0.6 mg/ml microtubule-associated proteins (MAPs), 0.5 mM GTP, 0.5 mM MgCl2, 4% DMSO and 0.1M 4-morpholineethanesulfonate buffer (MES, pH 6.4).

DU-145 = test: Growth inhibition, human cancer cell line DU-145 (SRB); type: cell-based; details: Prostate, 48 hours
Experimental: as §1

SF-268 = test: Growth inhibition, human cancer cell line SF-268 (SRB); type: cell-based; details: CNS Gliobl, 48 hours
Experimental: as §1

OVCAR-3 = test: Growth inhibition, human cancer cell line OVCAR-3 (SRB); type: cell-based; details: Ovarian, 48 hours
Experimental: as §1

human cancer cells = test: Cytotoxicity against human cancer cells; type: cell-based
FADU = test: Growth inhibition, human cancer cell line FADU (SRB); type: cell-based; details: Pharynx-sqam, 48 hours
Experimental: as §1

purified tubulin [2] = details: previously described compounds; cited from earlier work
tumor vasculature = details: cited from earlier work
[3] = cited from earlier work
P388 leukemia cells = test: Cytotoxicity assay with P388 leukemia cells; type: cell-based
NCI 60 cell line panel = test: NCI 60 cell line panel; type: cell-based; details: Homo sapiens
[4] = Homo sapiens, KM-20L2, Colon, read-out: GI50
[5] = Homo sapiens, MCF7, Breast adn, read-out: GI50

SMILES: COc1ccc2c(C(=O)c3cc(OC)c(OC)c(OC)c3)c(-c3ccc(OC)c(OP(=O)([O-])[O-])c3)sc2c1.[Na+].[Na+] [Compound 3, 3-(3′,4′,5′-trimethoxybenzoyl)-2-(3′-sodiumphosphate-4′-methoxyphenyl)-6-methoxybenzo[b]thiophene]
GI50 (KM20L2; Colon): 0.22 µg/mL | GI50 (BXPC-3): 0.35 µg/mL | GI50 (MCF-7; Breast adn): 0.028 µg/mL | GI50 (SF-295): 0.11 µg/mL | GI50 (NCI-H460): 0.035 µg/mL | tumor growth control (FIG. 20) (MHEC): remarkable activity in terms of tumor growth control | IC50 (purified tubulin [1]): 1000 to 4000 nM | GI50 (DU-145): 0.045 µg/mL

GI50 (KM20L2; [4]): 0.11 µg/mL (≈ 0.319 µM) | GI50 (SF-268): 0.67 µg/mL (≈ 1.95 µM) | GI50 (BXPC-3; Homo sapiens, read-out: GI50): 0.13 µg/mL (≈ 0.377 µM) | GI50 (MCF-7; [5]): 0.043 µg/mL (≈ 0.125 µM) | GI50 (NCI-H460; Homo sapiens, read-out: GI50): 0.16 µg/mL (≈ 0.465 µM) | IC50 (purified tubulin [1]): 1000 to 4000 nM | GI50 (DU-145; Homo sapiens, read-out: GI50): 0.38 µg/mL (≈ 1.1 µM)
SMILES: COc1ccc2c(c1)CCCC2(O)c1cc(OC)c(OC)c(OC)c1 (stereo not drawn) [Compound 14A]

SMILES: C#CC=CC#CC(=O)c1cc(OC)c(OC)c(OC)c1 [Compound 30, 1-(3,4,5-trimethoxybenzoyl)-(Z)-3-ene-1,5-hexadiyne]
GI50 (OVCAR-3): 0.53 µg/mL (≈ 1.96 µM) | cytotoxicity (in words) (human cancer cells): strong cytotoxicity | GI50 (FADU): 0.95 µg/mL (≈ 3.51 µM) | GI50 (BXPC-3; Homo sapiens, read-out: GI50): 1.4 µg/mL (≈ 5.18 µM) | GI50 (SF-295; Homo sapiens, read-out: GI50): 1.7 µg/mL (≈ 6.29 µM) | GI50 (NCI-H460; Homo sapiens, read-out: GI50): 1.7 µg/mL (≈ 6.29 µM) | inhibition of tubulin polymerization (in words) (purified tubulin [1]): excellent inhibition of tubulin polymerization | IC50 (purified tubulin [1]): 2000 to 4000 nM | GI50 (DU-145; Homo sapiens, read-out: GI50): 0.54 µg/mL (≈ 2 µM)

SMILES: COc1ccc(/C=C\c2cc(OC)c(OC)c(OC)c2)cc1O [Combretastatin A-4]
inhibition of tubulin polymerization (in words) (purified tubulin [2]): potent inhibitor of tubulin polymerization | destruction of tumor vasculature (in words) (tumor vasculature): does not demonstrate destruction of tumor vasculature | water solubility (in words) [3]: poor water solubility

SMILES: COc1ccc(/C=C\c2cc(OC)c(OC)c(OC)c2)cc1OP(=O)([O-])[O-].[Na+].[Na+] [CSA-4 prodrug]
destruction of tumor vasculature (in words) (tumor vasculature): very active in terms of tumor vasculature destruction

SMILES: CCOP(=O)(Nc1c(OC)ccc2c1CCC=C2c1cc(OC)c(OC)c(OC)c1)OCC [Compound 16, 6-methoxy-1-(3′,4′,5′-trimethoxyphenyl)-5-diethylphosphoramidate-3,4-dihydronaphthalene]
GI50 (KM20L2; [4]): 2.5 µg/mL (≈ 5.24 µM) | ED50 (effective dosage required to inhibit 50% of cell growth) (P388 leukemia cells): 20.4 µg/mL | GI50 (BXPC-3; Homo sapiens, read-out: GI50): 2 µg/mL (≈ 4.19 µM) | GI50 (MCF-7; [5]): 3 µg/mL (≈ 6.28 µM) | GI50 (SF-295; Homo sapiens, read-out: GI50): 2.2 µg/mL (≈ 4.61 µM) | GI50 (NCI-H460; Homo sapiens, read-out: GI50): 3.4 µg/mL (≈ 7.12 µM) | IC50 (purified tubulin [1]): > 40000 nM | GI50 (DU-145; Homo sapiens, read-out: GI50): 2.8 µg/mL (≈ 5.86 µM)

SMILES: COc1ccc2scc(OC)c2c1OC [Compound 1, 3,4,5-trimethoxybenzo[b]thiophene]
cytotoxicity (in words) (human cancer cells): potent cytotoxicity | inhibition of tubulin polymerization (in words) (purified tubulin [1]): inhibition of tubulin polymerization | GI50 (NCI 60 cell line panel): 263 nM
